Key:
[1] = compound: C(C(=O)C(=O)O)Br [Bromopyruvate] + CC(=O)Nc1cccc(-n2c(=O)n(C3CC3)c(=O)c3c(Nc4ccc(I)cc4F)n(C)c(=O)c(C)c32)c1 [Trametinib] (partner 0.02 µM); assay: relative viability (nuclei count vs DMSO), 5 days (fraction); higher = more cells survive
Method in brief: (§1)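 Five library-drug doses in √10 steps were combined with a fixed anchor-drug dose, or a single drug was given alone, by pin tool to lung cancer cell lines in 1536-well plates the day after seeding. Nuclei were stained and counted after 5 days. Relative viability is the nuclei count in treated wells over that in vehicle wells, taken as the median of duplicate plates.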

[2] = compound: CC(O)(CS(=O)(=O)c1ccc(F)cc1)C(=O)Nc1ccc(C#N)c(C(F)(F)F)c1 [Bicalutamide] + Cc1nc(Nc2ncc(C(=O)Nc3c(C)cccc3Cl)s2)cc(N2CCN(CCO)CC2)n1 [Dasatinib] (partner 0.075 µM); assay: as above
Method in brief: as §1

| Cell Line | relative viability ([1]; first compound 1 µM) | relative viability ([1]; first compound 3.162 µM) | relative viability ([1]; first compound 10 µM) | relative viability ([1]; first compound 31.62 µM) | relative viability ([1]; first compound 100 µM) | relative viability ([2]; first compound 0.08 µM) | relative viability ([2]; first compound 0.253 µM) | relative viability ([2]; first compound 0.8 µM) | relative viability ([2]; first compound 2.53 µM) |
| --- | --- | --- | --- | --- | --- | --- | --- | --- | --- |
| HCC-44 | 1.08 | 1.02 | 1.04 | 1.11 | 1 | – | – | – | – |
| HCC-827 | 0.51 | 0.542 | 0.579 | 0.551 | 0.568 | 0.328 | 0.19 | 0.315 | 0.293 |
| NCI-H1623 | – | – | – | – | – | – | 0.524 | 0.562 | 0.54 |
| NCI-H2405 | 0.735 | 0.739 | 0.764 | – | 0.684 | 0.23 | 0.199 | 0.235 | 0.154 |
| PC-3 [JPC-3] | 0.734 | – | 0.787 | – | 0.734 | 1.04 | 0.946 | 1.05 | 0.947 |
| NCI-H1651 | 0.817 | 0.866 | 0.891 | 0.825 | 0.836 | 0.449 | 0.322 | 0.471 | 0.451 |
| HARA | 0.709 | 0.814 | – | 0.633 | 1 | 0.273 | 0.248 | 0.314 | 0.265 |
| NCI-H1650 | 0.548 | 0.482 | 0.643 | 0.572 | 0.515 | 0.34 | 0.245 | 0.381 | 0.301 |
| NCI-H1395 | 0.982 | 0.977 | 1.16 | 1.02 | 1.08 | 0.406 | 0.404 | 0.414 | 0.353 |
| NCI-H1993 | 0.52 | 0.561 | 0.493 | 0.533 | 0.535 | 0.576 | 0.461 | 0.711 | 0.582 |
| LU99A | 0.521 | 0.531 | 0.621 | 0.564 | 0.661 | 0.569 | 0.536 | 0.738 | 0.444 |
| NCI-H1355 | 0.415 | 0.467 | 0.335 | 0.452 | 0.445 | 0.753 | 0.639 | 0.797 | 0.729 |
| HCC-78 | 0.746 | 0.681 | 0.955 | 0.71 | 0.72 | 0.363 | 0.297 | 0.483 | 0.375 |
| NCI-H1563 | – | – | – | – | – | 0.449 | 0.456 | 0.512 | 0.409 |
| HCC-15 | 0.349 | 0.385 | 0.386 | 0.369 | 0.393 | 0.666 | 0.568 | 0.653 | 0.609 |
| EKVX | 0.368 | 0.381 | 0.334 | 0.448 | 0.378 | 0.619 | 0.491 | 0.662 | 0.66 |
| NCI-H2126 | 0.547 | 0.579 | 0.559 | 0.591 | 0.57 | 0.628 | 0.581 | 0.632 | 0.555 |
| LK-2 | 0.742 | 0.92 | 0.872 | 0.782 | 0.519 | 0.283 | 0.224 | 0.261 | 0.293 |
| NCI-H1437 | 0.552 | 0.529 | 0.556 | 0.506 | 0.484 | 0.412 | 0.406 | 0.466 | 0.447 |

Reference: the supplement of paper PMC10307832
